Assay results taken from patent US9708340B2, “Urea derivatives and their use as fatty-acid binding protein (FABP) inhibitors” (Hoffmann-La Roche Inc., priority 2013, dated 2017).

How the values were obtained:
human FABP5 (huFABP5) = human FABP5 (huFABP5) (Homo sapiens (Human), UniProt Q01469); test: Tb TR-FRET assay, binding of Bodipy labeled fatty acid to His6 tagged huFABP5; details: 50 nM FABP protein, […] Bodipy labeled fatty acid; read-out: IC50 h-fabp5-ecoli-r
human FABP4 (huFABP4) = human FABP4 (huFABP4) (Homo sapiens (Human), UniProt P15090); test: Tb TR-FRET assay, binding of Bodipy labeled fatty acid to His6 tagged huFABP4; details: 50 nM FABP protein, […] Bodipy labeled fatty acid; read-out: IC50 h-fabp4-ecoli-r
human FABP4 (huFABP4), sequence (P15090 whole entry): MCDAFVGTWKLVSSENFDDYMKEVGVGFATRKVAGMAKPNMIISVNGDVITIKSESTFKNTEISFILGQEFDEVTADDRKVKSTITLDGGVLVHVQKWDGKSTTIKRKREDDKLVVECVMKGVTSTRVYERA

human FABP5 (huFABP5), sequence (Q01469 whole entry): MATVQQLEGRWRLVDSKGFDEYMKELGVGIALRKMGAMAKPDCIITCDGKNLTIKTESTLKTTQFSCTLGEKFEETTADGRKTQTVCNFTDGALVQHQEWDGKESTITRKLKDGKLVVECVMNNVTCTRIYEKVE

Compound	IC50 (human FABP5 (huFABP5)) [nM]	IC50 (human FABP4 (huFABP4)) [nM]
O=C(O)[C@H]1CCCN1C(=O)Nc1cc(Cl)ccc1-c1ccccc1 [Example 10, (R)-1-(4-chlorobiphenyl-2-ylcarbamoyl)pyrrolidine-2-carboxylic acid]	> 1440	120
O=C(O)[C@H]1CCN1C(=O)Nc1cc(Cl)ccc1-c1ccccc1 [Example 12, (R)-1-(4-chlorobiphenyl-2-ylcarbamoyl)azetidine-2-carboxylic acid]	> 50000	20
CCc1ccc(-c2ccccc2)c(NC(=O)N2CCC[C@@H]2C(=O)O)c1 [Example 62, (R)-1-(4-ethylbiphenyl-2-ylcarbamoyl)pyrrolidine-2-carboxylic acid]	> 50000	1860
O=C(O)[C@H]1CCCN1C(=O)Nc1cc(Cl)ccc1-c1csc2ccccc12 [Example 53, (R)-1-(2-(benzo[b]thiophen-3-yl)-5-chlorophenylcarbamoyl)pyrrolidine-2-carboxylic acid]	42200	340
O=C(O)[C@H]1CCCN1C(=O)Nc1cc(OC(F)(F)F)ccc1-c1ccccc1 [Example 17, (R)-1-(4-(trifluoromethoxy)biphenyl-2-ylcarbamoyl)pyrrolidine-2-carboxylic acid]	> 50000	5710
O=C(O)[C@H]1CCN1C(=O)Nc1ccccc1-c1ccccc1 [Example 28, (R)-1-(biphenyl-2-ylcarbamoyl)azetidine-2-carboxylic acid]	> 50000	80
O=C(O)[C@H]1CSCN1C(=O)Nc1ccccc1-c1ccccc1 [Example 8, (S)-3-(Biphenyl-2-ylcarbamoyl)-thiazolidine-4-carboxylic acid]	> 50000	330
O=C(O)[C@H]1CCCN1C(=O)Nc1c(-c2ccccc2)sc2ncccc12 [Example 22, (R)-1-(2-phenylthieno[2,3-b]pyridin-3-ylcarbamoyl)pyrrolidine-2-carboxylic acid]	> 50000	1660
O=C(O)[C@H]1CCCN1C(=O)Nc1ccsc1-c1ccccc1 [Example 24, (R)-1-(2-phenylthiophen-3-ylcarbamoyl)pyrrolidine-2-carboxylic acid]	> 50000	1670
O=C(O)[C@H]1CCCN1C(=O)Nc1cc(Cl)ccc1-c1ccsc1 [Example 52, (R)-1-(5-chloro-2-(thiophen-3-yl)phenylcarbamoyl)pyrrolidine-2-carboxylic acid]	> 10400	60
Cc1ccccc1-c1ccc(Cl)cc1NC(=O)N1CCC[C@@H]1C(=O)O [Example 61, (R)-1-(4-chloro-2′-methylbiphenyl-2-ylcarbamoyl)pyrrolidine-2-carboxylic acid]	> 50000	2750
O=C(O)[C@H]1CCCN1C(=O)Nc1cc(F)cc(F)c1-c1ccccc1 [Example 14, (R)-1-(4,6-difluorobiphenyl-2-ylcarbamoyl)pyrrolidine-2-carboxylic acid]	> 6860	310
Cc1cc(-c2ccccc2)c(NC(=O)N2CC[C@@H]2C(=O)O)cc1Cl [Example 31, (R)-1-(4-chloro-5-methylbiphenyl-2-ylcarbamoyl)azetidine-2-carboxylic acid]	5080	30
O=C(O)[C@H]1CCN1C(=O)Nc1cc(Cl)ccc1-c1cccc(F)c1F [Example 36, (R)-1-(4-chloro-2′,3′-difluorobiphenyl-2-ylcarbamoyl)azetidine-2-carboxylic acid]	> 50000	60
O=C(O)[C@H]1CCCN1C(=O)Nc1cc(Cl)cc(C2=CCCCC2)c1-c1ccccc1 [Example 26, (R)-1-[4-chloro-6-(cyclohexen-1-yl)-biphenyl-2-ylcarbamoyl]pyrrolidine-2-carboxylic acid]	70	530
O=C(O)[C@H]1CCCN1C(=O)Nc1c(F)cccc1-c1ccccc1 [Example 11, (R)-1-(3-fluorobiphenyl-2-ylcarbamoyl)pyrrolidine-2-carboxylic acid]	> 50000	860
